Data set [1] deals with male Sprague-Dawley rats with steatosis, induced by choline and methionine deficient (MCD) diet. The experiment in a line: Alanine aminotransferase (ALT) activity in plasma, animal study Step #2 (FIG. 1). The data set is classed as in vivo, rat. As for the experimental part:
ALT activity is determined by a modification recommended by the International Federation of Clinical Chemistry (IFCC), see also Example 2. ALT catalyzes the reaction of alpha-ketoglutarate with L-alanine to form L-glutamate and pyruvate. Under the action of LDH, pyruvate converts to lactate, and NADH is converted to NAD. The decrease in absorbance of NADH, measured at 340 nm (secondary wavelength is 700 nm), is directly proportional to the serum activity of ALT. It is a kinetic reaction. In general, serum is used for analysis. The serum is separated from the cells within 2 hours of collection and stored at -70° C. until assayed, Monitoring the ALT activity over time in an animal model is used herein as one straightforward and conclusive way to determine the efficacy of GPC in treating liver disease, specifically liver damage caused by a choline-deficient diet (Examples 1 and 2, FIGS. 1 and 2), Plasma-free choline concentration can be determined by high-pressure liquid chromatography (HPLC) and gas chromatography-mass spectrometry according to protocols known in the art (Pomfret et. al.: Measurement of choline and choline metabolite concentrations using high pressure liquid chromatography and gas chromatography-mass spectrometry. Anal Biochem. 1989; 180: 85-90). The effects of GPC as well as of the combination of DHA, ARA and GPC were investigated in a sick animal model, wherein male Sprague-Dawley rats with steatosis, induced by choline and methionine deficient (MCD) diet (S SNIFF MCD pelleted choline/methionine deficient diet (SSNIFF Spezialdiäten GmbH, Soest, Germany, Product No. E15653-94)) were kept on parenteral nutrition. Steatosis was confirmed in the respective groups by histopathology (Example 3). Parenteral nutrition started after 14 days under MCD diet. First measurements were done after 5 days of parenteral nutrition, followed by measurements after 9 and 17 days. The daily lipid uptake was 2.31 g/kg/d. The rats were split into several groups as set forth below in Table I. Two groups served as control groups, wherein a first group was treated with saline solution (0.90% w/v of NaCl in water for injection). A second group received a lipid emulsion (“LE 10%”) containing refined olive oil (80.0 g/L) and refined soybean oil (20.0 g/L) in water for injection, pH 6-8; LE 10% further contained egg lecithin (6.0 g/L), glycerol (11.25 g/L) and sodium oleate (0.15 g/L). LE 10% contained 100 g/L lipids. […] Pharmaceutical Secondary Standard, was purchased from Sigma-Aldrich (Merck KGaA, Germany). […] As described before, liver damage (cholestasis) may be determined by increased aminotransferase levels. ALT activity was determined with an ADVIA 1800 blood biochemistry analyzer/IFCC modified (Siemens) according to standard protocols such as described before.

Data set [2] has the same test system. Put plainly: Liver histopathology, vacuolation, choline derivatives alone, Step #2 (FIG. 3A). The format is in vivo, rat. The following applies: no DHA and ARA. The text has this:
(§1) The effects of GPC as well as of the combination of DHA, ARA and GPC were investigated in a sick animal model, wherein male Sprague-Dawley rats with steatosis, induced by choline and methionine deficient (MCD) diet (S SNIFF MCD pelleted choline/methionine deficient diet (SSNIFF Spezialdiäten GmbH, Soest, Germany, Product No. E15653-94)) were kept on parenteral nutrition.
(§2) Parenteral nutrition started after 14 days under MCD diet. First measurements were done after 5 days of parenteral nutrition, followed by measurements after 9 and 17 days. The daily lipid uptake was 2.31 g/kg/d. The rats were split into several groups as set forth below in Table I.
(§3) Two groups served as control groups, wherein a first group was treated with saline solution (0.90% w/v of NaCl in water for injection). A second group received a lipid emulsion (“LE 10%”) containing refined olive oil (80.0 g/L) and refined soybean oil (20.0 g/L) in water for injection, pH 6-8; LE 10% further contained egg lecithin (6.0 g/L), glycerol (11.25 g/L) and sodium oleate (0.15 g/L). LE 10% contained 100 g/L lipids.
(§4) Various choline derivatives selected from the group consisting of choline chloride, glycerophosphocholine (GPC) and cytidine diphosphate-choline (CDP-choline) were added in two concentrations (low/high) to LE 10%, respectively, see Table I (Step #2). “Low” refers to a concentration of 15 mmol/L lipid emulsion, “high” refers to a concentration of 31 mmol/L of lipid emulsion. Choline chloride (2-Hydroxyethyl)trimethylammonium chloride). Pharmaceutical Secondary Standard, was purchased from Sigma-Aldrich (Merck KGaA, Germany). CDP-choline (prepared by fermentation) was from TCI Europe N.V. (Antwerp, Belgium). Glycerophosphocholine, prepared from egg phosphatide by saponification, was supplied by Lipoid GmbH, Germany. DHA (from algae, Schizochytrium sp.) and ARA (from fungi, Mortierella alpina) were purchased from BASF AG, Germany, Vitamin E was purchased from ADM (IL, U.S.A.)

For data set [3] the test system is unchanged. The experiment in a line: Liver weight to body weight ratio (FIG. 4). The data set is classed as in vivo, rat.
Description: as §1, §2, §3, §4
The study groups as described in Example 1 were further evaluated with regard to the development of liver weight versus body weight. An increase in liver weight which is not proportional to the increase of body weight is typical for the development of liver damage, specifically steatosis, as described before.

Data set [4] in a line: Stability of lipid emulsions upon sterilization in the presence of choline derivatives. The data set is classed as physicochemical. The following applies: for Stability of lipid emulsion upon sterilization (Comment): heat sterilization; for stability of the lipid emulsions during sterilization (heat): lipid emulsions prepared as in Example 1. The text has this:
In a first step, raw phases are heated up. […] The receiving vessel is closed and flushed with nitrogen.

For data set [5], the system named is male Sprague-Dawley rats with steatosis, induced by choline and methionine deficient (MCD) diet. Put plainly: ALT activity in percent of the normal value, animal study Step #3 (FIG. 2). The data set is classed as in vivo, rat. As to the method:
ALT activity is determined by a modification recommended by the International Federation of Clinical Chemistry (IFCC), see also Example 2. ALT catalyzes the reaction of alpha-ketoglutarate with L-alanine to form L-glutamate and pyruvate. Under the action of LDH, pyruvate converts to lactate, and NADH is converted to NAD. The decrease in absorbance of NADH, measured at 340 nm (secondary wavelength is 700 nm), is directly proportional to the serum activity of ALT. It is a kinetic reaction. In general, serum is used for analysis. The serum is separated from the cells within 2 hours of collection and stored at −70° C. until assayed, Monitoring the ALT activity over time in an animal model is used herein as one straightforward and conclusive way to determine the efficacy of GPC in treating liver disease, specifically liver damage caused by a choline-deficient diet (Examples 1 and 2, FIGS. 1 and 2), Plasma-free choline concentration can be determined by high-pressure liquid chromatography (HPLC) and gas chromatography-mass spectrometry according to protocols known in the art (Pomfret et. al.: Measurement of choline and choline metabolite concentrations using high pressure liquid chromatography and gas chromatography-mass spectrometry. Anal Biochem. 1989; 180: 85-90). […] As described before, liver damage (cholestasis) may be determined by increased aminotransferase levels. […]

Where [6] appears, read: plasma, day 5 to day 17 of parenteral nutrition, choline derivative 31 mmol/L (high) in LE 10%.
Where [7] appears, read: choline derivative low, 15 mmol/L in LE 10%.
The mark [8] stands for this setting: choline derivative high, 31 mmol/L in LE 10%, versus LE 10% alone.
Where [9] appears, read: choline derivative high, 31 mmol/L in LE 10%.
[10] abbreviates: phosphatidylcholine as contained in the lipid emulsion(s).

“Also recorded” adds a separate entry of the source.

Take `C[N+](C)(C)CCOP(=O)(O)OP(=O)([O-])OC[C@H]1O[C@@H](n2ccc(N)nc2=O)[C@H](O)[C@@H]1O` [CDP-choline, cytidine diphosphate-choline]: the “development of ALT activity” value in data set [1] (setting [6]) is “ALT activity neither significantly increases or decreases”. Moreover, in data set [2] (setting [7]), the “effect on liver vacuolation (histopathological examination)” value (shortened to “effect … (histopathological examination)”) is reported as “also had an effect”. The “liver to body weight ratio” value in data set [3] (setting [8]) was “reduction of the ratio”. Moreover, the “Stability of lipid emulsion upon sterilization (Comment)” value (“Stability … (Comment)” below) in data set [4] (30 mmol/L, lipid emulsion tested LE 10 %) is “Phase separation”. For the same compound, the “stability of the lipid emulsions during sterilization (heat)” value (shortened to “stability … (heat)”) in data set [4] is on record as “destabilize the lipid emulsions during sterilization”.
As to `C[N+](C)(C)CCOP(=O)([O-])OC[C@@H](O)CO` [GPC, (2-{[(2S)-2,3-dihydroxypropylphosphonato]oxy}ethyl)trimethylazanium], the “development of ALT activity” value in data set [1] (setting [6]) is “clear drop in ALT activity; also recorded: most pronounced”. For the same compound, in data set [5] (GPC 40 mmol/L in lipid emulsion, normal (LE 10%) or reduced (LE 13%) phytosterol content), the “ALT activity, change versus normal value” is “significant decrease of ALT activity”. Besides, the “effect … (histopathological examination)” value in data set [2] (setting [9]) and in data set [2] (setting [7]) was “significantly better” each time. The “liver to body weight ratio” value in data set [3] (setting [8]) is “most pronounced reduction of the ratio”. Moreover, the “Stability … (Comment)” value in data set [4] (30 mmol/L, lipid emulsions tested LE 10, 20 %) was “Stable emulsion”. For the same compound, in data set [4], the “stability … (heat)” value was “remained stable”.
Regarding `C[N+](C)(C)CCO.[Cl-]` [choline chloride, (2-Hydroxyethyl)trimethylammonium chloride], the “development of ALT activity” value in data set [1] (setting [6]) was “ALT activity neither significantly increases or decreases”. In addition, the “effect … (histopathological examination)” value in data set [2] (setting [9]) and in data set [2] (setting [7]) was “fared better than those with only saline or lipid emulsion without any choline derivative” each time. Further, the “liver to body weight ratio” value in data set [3] (setting [8]) is reported as “reduction of the ratio”. In addition, the “Stability … (Comment)” value in data set [4] (15 mmol/L, lipid emulsions tested LE 10, 13, 20 %) was “Phase separation”. Besides, the “stability … (heat)” value in data set [4] is listed as “destabilize the lipid emulsions during sterilization”.
As for phosphatidylcholine, the “development of ALT activity” value in data set [1] (phosphatidylcholine as contained in LE lipid emulsion, 17 days parenteral nutrition) was “does not seem to have any effect”. For the same compound, the “ALT activity, change versus normal value” in data set [5] (setting [10]) was “does not seem to have any effect”. In addition, the “liver to body weight ratio” value in data set [3] (setting [10]) is recorded as “does not seem to have any effect”.

Values taken from patent US12171866B2, “Lipid emulsion for parenteral nutrition comprising GPC” (BAXTER INTERNATIONAL INC., priority 2018, dated 2024).
